Results from US20030004211A1, “Carbohydrate modifying agent and drinks containing the modifying agent” (priority 2001, published 2003).

Assays:
mutans streptococci = experiment: in vitro growth and adherence of cariogenic bacteria (UCSF School of Preventive Dentistry study); type: cell-based; details: 0.5% zinc solution
Excerpt: (§1) In another preferred embodiment of the invention, the formulation includes one or more zinc salt or other source of the zinc ion. Metabolically, zinc is a critical nutrient in the synthesis of insulin and the metabolism of carbohydrates. From a dental perspective, cariogenic bacteria enzymatically produce an insoluble glucan deposit from simple sugars present in the mouth that firmly adheres to the enamel tooth surface.

sobrinus streptococci = experiment: as above; type: cell-based; details: 0.5% zinc solution
Excerpt: as §1

zinc ascorbate
inhibited: adherence of mutans streptococci (mutans streptococci) | growth of mutans streptococci (mutans streptococci) | adherence of sobrinus streptococci (sobrinus streptococci) | growth of sobrinus streptococci (sobrinus streptococci)

[Cl-].[Cl-].[Zn+2] [zinc chloride]
inhibited: adherence of mutans streptococci (mutans streptococci) | growth of mutans streptococci (mutans streptococci) | adherence of sobrinus streptococci (sobrinus streptococci) | growth of sobrinus streptococci (sobrinus streptococci)
